Reference: patent US5556941A, “Glycopeptide derivatives, a process for their preparation and pharmaceutical agents containing these compounds” (Behringwerke Aktiengesellschaft, priority 1992, dated 1996)

Assays:
human thrombin = molecular target: T1, human thrombin (Homo sapiens, UniProt P00734); assay: Determination of the inhibition constants (Ki) for thrombin, chromogenic substrate S-2238; type: biochemical; conditions: 100 pM human thrombin, pH 7.8, 37° C., 10 minutes preincubation, tight-binding evaluation
T1 construct: By proteolysis the proenzyme prothrombin is converted into thrombin
Protocol: The inhibition constants (Ki) of the compounds of the formula I were determined in established enzyme-kinetic procedures. […] Inhibitor and enzyme were preincubated for 10 minutes, and the reaction was started by addition of the chromogenic substrate S2238. For the evaluation of the kinetics, the mathematical algorithm for tight-binding was used, which gave Ki values and the inhibition type with the aid of non-linear regression.

[1] = molecular target: T2, trypsin from bovine pancreas (Bos taurus, UniProt P00760); assay: Determination of the specificity of the inhibitors: Ki of trypsin, substrate Chromozyme TRY; type: biochemical; conditions: for Ki: 0.5 nM bovine pancreas trypsin, pH 7.8, 37° C., 10 minute preincubation; for Specificity Try/Thr: ratio Ki trypsin / Ki thrombin
T2 construct: from tissue; host or cells: bovine pancreas
T2 sequence (P00760 24-246): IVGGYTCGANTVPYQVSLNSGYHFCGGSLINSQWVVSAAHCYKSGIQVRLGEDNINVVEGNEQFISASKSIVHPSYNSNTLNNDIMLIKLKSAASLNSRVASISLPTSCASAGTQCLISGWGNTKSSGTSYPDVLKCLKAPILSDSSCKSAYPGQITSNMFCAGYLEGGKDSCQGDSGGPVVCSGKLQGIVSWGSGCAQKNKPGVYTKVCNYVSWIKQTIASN
Protocol: The specificity of the inhibitors towards thrombin and trypsin was determined. The Ki of trypsin was determined in an analogous manner to the determination of the Ki of thrombin. The reaction mixture was composed as follows--buffer: 200 mM triethanolamine, 20 mM CaCl2, pH 7.8; 37° C.; enzyme: 0.5 nM trypsin from bovine pancreas; substrate: 500 μM carbobenzoxy-L-valyl-glycyl-L-arginine-4-nitranilide (Chromozyme TRY, from Boehringer Mannheim). The enzymatic reaction was started after a 10 minute preincubation by addition of the substrate.

CD rats = assay: Determination of the acute toxicity; type: in vivo, rat; conditions: i.v., survival on day 1, Litchfield & Wilcoxon method
Protocol: To determine the acute toxicity, CD rats were injected i.v. on day 0 with different doses of the test substance dissolved in 0.5 mL of physiol. NaCl solution. Control groups received only 0.5 mL of physiol. NaCl solution. 2 rats were used per concentration of the test substance. The number of rats surviving on day 1 was determined and the LD5, LD50 and LD95 were calculated by the Litchfield & Wilcoxon method. […] The results are summarized in Table I. Pharmacological data and activities of some selected compounds: […]

thrombin = conditions: cited from earlier work

SMILES | Ki (human thrombin) [nM] | Ki [1] [nM] | Specificity Try/Thr [1] | LD50 (rat) (CD rats) [mg/kg] | specificity for thrombin (thrombin)
COC(=O)C1OC(NC(=O)C[C@H](NS(=O)(=O)c2c(C)cc(OC)c(C)c2C)C(=O)N[C@H](Cc2ccc(C(=N)N)cc2)C(=O)N2CCCCC2)C(OC(C)=O)C(OC(C)=O)C1OC(C)=O.Cl (stereo partly drawn) [Compound 24, 2-N-(4-Methoxy-2,3,6-trimethyl-benzenesulfonyl)-4-N-[methyl (2,3,4-tri-O-acetyl-β-D-glucopyranosyl)uronate]-L-asparaginyl-4-amidino-D-phenylalanine-piperidide hydrochloride] | 0.8 | 231 | 289 | 46 | –
COc1cc(C)c(S(=O)(=O)N[C@@H](CC(=O)N[C@@H]2O[C@H](COC(C)=O)[C@@H](OC(C)=O)[C@H](OC(C)=O)[C@H]2OC(C)=O)C(=O)N[C@H](Cc2ccc(C(=N)N)cc2)C(=O)N2CCCCC2)c(C)c1C.Cl [Compound 25, 2-N-(4-Methoxy-2,3,6-trimethyl-benzenesulfonyl)-4-N-(2,3,4,6-tetra-O-acetyl-β-D-glucopyranosyl)-L-asparaginyl-4-amidino-D-phenylalanine-piperidide hydrochloride] | 2.4 | 283 | 118 | 55 | –
COc1cc(C)c(S(=O)(=O)N[C@@H](CC(=O)N[C@@H]2O[C@H](C(=O)O)[C@@H](O)[C@H](O)[C@H]2O)C(=O)N[C@H](Cc2ccc(C(=N)N)cc2)C(=O)N2CCCCC2)c(C)c1C.Cl [Compound 30, 2-N-(4-Methoxy-2,3,6-trimethyl-benzenesulfonyl)-4-N-[(β-D-glucopyranosyl)-uronic acid]-L-asparaginyl-4-amidino-D-phenylalanine-piperidide hydrochloride] | 0.085 | 349 | 4106 | 51 | –
COc1cc(C)c(S(=O)(=O)N[C@@H](CC(=O)N[C@@H]2O[C@H](CO)[C@@H](O)[C@H](O)[C@H]2O)C(=O)N[C@H](Cc2ccc(C(=N)N)cc2)C(=O)N2CCCCC2)c(C)c1C.Cl [Compound 31, 2-N-(4-Methoxy-2,3,6-trimethyl-benzenesulfonyl)-4-N-[(β-D-glucopyranosyl)-L-asparaginyl-4-amidino-D-phenylalanine-piperidide hydrochloride] | 0.075 | 501 | – | – | –
COc1cc(C)c(S(=O)(=O)N[C@@H](CC(=O)N[C@@H]2O[C@H](CO)[C@@H](O)[C@H](O)[C@H]2O)C(=O)N[C@H](Cc2ccc(C(=N)N)cc2)C(=O)N2CCCCC2)c(C)c1C.Cl [Compound 31] | – | – | 6680 | 45 | –
COc1cc(C)c(S(=O)(=O)N[C@@H](CC(=O)N[C@@H]2O[C@H](CO)[C@@H](O)[C@H](O)[C@H]2NC(C)=O)C(=O)N[C@H](Cc2ccc(C(=N)N)cc2)C(=O)N2CCCCC2)c(C)c1C.Cl [Compound 32, 2-N-(4-Methoxy-2,3,6-trimethyl-benzenesulfonyl)-4-N-(2-acetamido-2-deoxy-β-D-glucopyranosyl)-L-asparaginyl-4-amidino-D-phenylalanine-piperidide hydrochloride] | 1.1 | 528 | 480 | 53 | –
COc1cc(C)c(S(=O)(=O)N[C@@H](CC(=O)N[C@@H]2O[C@H](CO)[C@H](O)[C@H](O)[C@H]2O)C(=O)N[C@H](Cc2ccc(C(=N)N)cc2)C(=O)N2CCCCC2)c(C)c1C.Cl [Compound 41, 2-N-(4-Methoxy-2,3,6-trimethyl-benzenesulfonyl)-4-N-(β-D-galactopyranosyl)-L-asparaginyl-4-amidino-D-phenylalanine-piperidide hydrochloride] | 0.04 | 375 | 9375 | 50 | –
COc1cc(C)c(S(=O)(=O)N[C@@H](CO[C@@H]2OC[C@@H](O)[C@@H](O)[C@H]2O)C(=O)N[C@H](Cc2ccc(C(=N)N)cc2)C(=O)N2CCCCC2)c(C)c1C.I [Compound 42, 2-N-(4-Methoxy-2,3,6-trimethyl-benzenesulfonyl)-3-O-(β-D-ribo-pyranosyl)-L-seryl-4-amidino-D-phenylalanine-piperidide hydroiodide] | 1.3 | 650 | 500 | 60 | –
COc1cc(C)c(S(=O)(=O)N[C@@H](CC(=O)O)C(=O)N[C@H](Cc2ccc(C(=N)N)cc2)C(=O)N2CCCCC2)c(C)c1C.Cl [Compound 43, 2-N-(4-Methoxy-2,3,6-trimethyl-benzenesulfonyl)-L-Asp-4-amidino-D-phenylalanine-piperidide×HCl] | 1.5 | 187 | 125 | 62 | –
COc1cc(C)c(S(=O)(=O)N[C@@H](CC(=O)N[C@H]2O[C@@H](C)[C@@H](O)[C@@H](O)[C@@H]2O)C(=O)N[C@H](Cc2ccc(C(=N)N)cc2)C(=O)N2CCCCC2)c(C)c1C.Cl [Compound 49, 2-N-(4-Methoxy-2,3,6-trimethyl-benzenesulfonyl)-4-N-(β-L-fucopyranosyl)-L-aspaginyl-4-amidino-D-phenylalanine-piperidide hydrochloride] | 0.1 | 531 | 5310 | 52 | –
COc1cc(C)c(S(=O)(=O)N[C@@H](CC(=O)N[C@@H]2O[C@H](CO)[C@H](O)[C@H](O)[C@H]2NC(C)=O)C(=O)N[C@H](Cc2ccc(C(=N)N)cc2)C(=O)N2CCCCC2)c(C)c1C.Cl [Compound 50, 2-N-(4-Methoxy-2,3,6-trimethyl-benzenesulfonyl)-4-N-(2-acetamido-2-deoxy-β-D-galactopyranosyl)-L-asparaginyl-4-amidino-D-phenylalanine-piperididehydrochloride] | 2.1 | 608 | 289 | 64 | –
N=C(N)c1ccc(CC(NC(=O)CNS(=O)(=O)c2ccc3ccccc3c2)C(=O)N2CCCCC2)cc1 (centres unmarked) [NAPAP, 2-N-(2-naphthalenesulfonylglycyl)-4-amidino-phenylalaninc piperidide] | – | – | – | – | too low
